{"source": "patent US9427458B2", "about": "“Methods for inhibiting cancer cell proliferation” (Consejo Nacional de Investigaciones Cientificas y Tecnicas, …, priority 2010, dated 2016)", "key": {"Stat3 [1]": {"tested_on": "Stat3", "assay": "Stat3 phosphorylation and nuclear translocation in C4HD cells", "assay_type": "cell-based, mouse", "method": "(§1) Lysates were prepared from cells subjected to the different treatments and proteins were subjected to SDS-PAGE as previously described (21). Membranes were immunoblotted with the antibodies detailed in each experiment. When phospho(p)-protein antibodies were used, filters were reprobed with total protein antibodies. Signal intensities of pErbB-2, pStat3, pSrc, pPR, pJak1, and pJak2 bands were analyzed by densitometry and normalized to total protein bands. Similarly, signal intensities of PR, cyclin D1, Stat3, and ErbB-2 bands were normalized to actin or β tubulin bands. […] The NEPER Nuclear and Cytoplasmic Extraction Reagents technique (Pierce Biotechnology) was performed as per manufacturer's instructions. Nuclear association between ErbB-2 and Stat3 was studied by performing coimmunoprecipitation experiments using 200 μg of nuclear protein lysates as described (22).\nsiRNAs targeting ErbB-2, Stat3, and Pr were synthesized by Dharmacon, Inc (Lafayatte, Colo.) (ErbB-2siRNA: 5′GAUGGUGCUUACUCAUUGA3′ (SEQ ID NO:8), designed to specifically knockdown mouse ErbB2 but not human ErbB-2; Stat3siRNA: 5′[…]3′ (SEQ ID NO:9) targets mouse Stat3; and 5′[…]3′ (SEQ ID NO:10) targets human Stat3; PRsiRNA: 5′[…]3′(SEQ ID NO:11)). […] Transfection of siRNAs duplexes was performed by using the DharmaFECT transfection reagent following the manufacturer's direction for 3 days. For reconstitution experiments cotransfection of 25 nM ErbB-2 siRNA with 2 μg expression vectors was performed using DharmaFECT Duo transfection reagent (Dharmacon).\n(§2) Cells grown on glass coverslips were fixed and permeabilized in ice-cold methanol and were then blocked with PBS 1% BSA. ErbB-2 was localized using either a rabbit polyclonal (C-18) or a mouse monoclonal (F-11) ErbB-2 antibody (Santa Cruz Biotechnology) and Stat3 was detected using a mouse monoclonal antibody (124H6, Cell Signaling), followed by incubation with a goat anti-rabbit IgG-Alexa 488 (Molecular Probes, Eugene, Oreg.) secondary antibody for ErbB-2 (C-18) and with a rhodamine conjugated goat anti-mouse secondary antibody (Jackson ImmunoResearch Laboratories, West Grove, Pa.) for both ErbB2 (F-11) and Stat3. Negative controls were carried out using PBS instead of primary antibodies, or 5× competitive peptide (Santa Cruz Biotechnology) when ErbB-2 (C-18) was used. When cells were transfected with hErbB-2ΔNLS, green fluorescent protein from this expression vector was visualized by direct fluorescence imaging. […] FIGS. 2A, 3B and C, illustrate a few cells representative of the ones examined. Cells were analyzed using a Nikon Eclipse E800 confocal laser microscopy system (22)."}, "cyclin D1": {"tested_on": "cyclin D1", "assay": "Cyclin D1 protein levels by Western blot in C4HD cells", "assay_type": "cell-based, mouse", "settings": "C4HD cells preincubated or transfected, then MPA for 48 h", "method": "(§3) Primary cultures of epithelial cells from C4HD tumors were performed as described (2). T47D cells were obtained from American Type Culture Collection and T47D-Y cells were a generous gift from Dr. K. Horwitz (Denver, Colo.). To evaluate the effects of the pharmacological inhibitors on MPA-induced proteins phosphorylation or cyclin D1 expression, cells were preincubated for 90 min with RU486, PP2, Tyrphostin AG825 or Jak inhibitor I before addition of MPA. Cell proliferation was evaluated by [3H]-thymidine incorporation assay and cell cycle distribution was analyzed by flow cytometry, as described (22).\nas §1, with “Nuclear association between ErbB-2 and Stat3 was studied by performing coimmunoprecipitation experiments using 200 μg of nuclear protein lysates as described (22).” left out"}, "ErbB-2 [2]": {"tested_on": "ErbB-2", "assay": "ErbB-2 cellular localization (subcellular fractionation/immunoblot, confocal microscopy) in C4HD cells", "assay_type": "cell-based, mouse", "settings": "C4HD cells pretreated with inhibitor before MPA", "method": "(§4) Lysates were prepared from cells subjected to the different treatments and proteins were subjected to SDS-PAGE as previously described (21). Membranes were immunoblotted with the antibodies detailed in each experiment. When phospho(p)-protein antibodies were used, filters were reprobed with total protein antibodies. Signal intensities of pErbB-2, pStat3, pSrc, pPR, pJak1, and pJak2 bands were analyzed by densitometry and normalized to total protein bands. Similarly, signal intensities of PR, cyclin D1, Stat3, and ErbB-2 bands were normalized to actin or β tubulin bands. […]\n(§5) Cells grown on glass coverslips were fixed and permeabilized in ice-cold methanol and were then blocked with PBS 1% BSA. ErbB-2 was localized using either a rabbit polyclonal (C-18) or a mouse monoclonal (F-11) ErbB-2 antibody (Santa Cruz Biotechnology) and Stat3 was detected using a mouse monoclonal antibody (124H6, Cell Signaling), followed by incubation with a goat anti-rabbit IgG-Alexa 488 (Molecular Probes, Eugene, Oreg.) secondary antibody for ErbB-2 (C-18) and with a rhodamine conjugated goat anti-mouse secondary antibody (Jackson ImmunoResearch Laboratories, West Grove, Pa.) for both ErbB2 (F-11) and Stat3. […] When cells were transfected with hErbB-2ΔNLS, green fluorescent protein from this expression vector was visualized by direct fluorescence imaging. […]"}, "ErbB-2 [3]": {"tested_on": "ErbB-2", "assay": "ErbB-2 tyrosine phosphorylation by Western blot in C4HD cells", "assay_type": "cell-based, mouse", "settings": "C4HD cells preincubated with inhibitor or transfected with siRNA before MPA", "method": "as §3\nas §1, with “Nuclear association between ErbB-2 and Stat3 was studied by performing coimmunoprecipitation experiments using 200 μg of nuclear protein lysates as described (22).” left out"}, "ErbB-2 [4]": {"tested_on": "ErbB-2", "assay": "ErbB-2 tyrosine phosphorylation by Western blot in T47D cells", "assay_type": "cell-based, human", "settings": "T47D cells preincubated with inhibitor before MPA", "method": "as §3, §1"}, "ErbB-2 [5]": {"tested_on": "ErbB-2", "assay": "ErbB-2 cellular localization (subcellular fractionation/immunoblot, confocal microscopy) in T47D cells", "assay_type": "cell-based, human", "settings": "T47D cells pretreated with inhibitor before MPA", "method": "as §4, §5"}, "Stat3 [6]": {"tested_on": "Stat3", "assay": "Stat3 phosphorylation and nuclear translocation in T47D cells", "assay_type": "cell-based, human", "settings": "T47D cells pretreated with inhibitor before MPA", "method": "as §1, §2"}}, "note": "“Also recorded” adds a separate entry of the source."}
{"compound": "5′GAUGGUGCUUACUCAUUGA3′ (other strand missing, further chemistry not given here) [ErbB-2 siRNAs, siRNA designed to specifically knockdown mouse ErbB2 but not human ErbB-2]", "values": [{"measurement": "MPA-induced Stat3 phosphorylation", "setting": "Stat3 [1]; C4HD cells transfected with siRNAs to knock down mouse ErbB-2", "result": "inhibited"}]}
{"compound": "5′GGUCAAAUUUCCUGAGUUGUU3′ (other strand missing, further chemistry not given here) [Stat3 siRNAs, siRNA that targets mouse Stat3]", "values": [{"measurement": "MPA-induced cyclin D1 protein levels", "setting": "cyclin D1", "result": "abrogated"}]}
{"compound": "COc1cc(/C=C(\\C#N)C(N)=O)cc(CSc2nc3ccccc3s2)c1O", "note": "[AG825]", "values": [{"measurement": "MPA-induced ErbB-2 nuclear translocation", "setting": "ErbB-2 [2]", "result": "abrogated; also recorded: significantly inhibited"}, {"measurement": "MPA-induced ErbB-2 phosphorylation", "setting": "ErbB-2 [3]", "result": "prevented"}, {"measurement": "MPA-induced ErbB-2 phosphorylation", "setting": "ErbB-2 [4]", "result": "prevented"}, {"measurement": "MPA-induced ErbB-2 nuclear translocation", "setting": "ErbB-2 [5]", "result": "abrogated; also recorded: significantly inhibited"}, {"measurement": "MPA-induced Stat3 nuclear migration", "setting": "Stat3 [1]; C4HD cells pretreated with inhibitor before MPA", "result": "absolutely prevented"}, {"measurement": "MPA-induced Stat3 nuclear migration", "setting": "Stat3 [6]", "result": "absolutely prevented"}]}
